Source: ChEMBL document CHEMBL4364324, “Triazole derivatives as inhibitors of Alzheimer's disease: Current developments and structure-activity relationships” (Eur J Med Chem, 2019)

How the values were obtained:
Cholinesterase [1] = biological target: T1, Cholinesterase (Homo sapiens, UniProt P06276); assay: Inhibition of human BuChE at 100 uM using acetylthiocholine iodide as substrate after 10 secs measured at 30 s intervals for two minutes by Ellman's method relative to control
Acetylcholinesterase [2] = biological target: T2, Acetylcholinesterase (Electrophorus electricus, UniProt O42275); assay: Inhibition of electric eel AChE using acetylthiocholine iodide as substrate preincubated for 3 mins followed by substrate addition
T2 sequence (O42275 whole entry): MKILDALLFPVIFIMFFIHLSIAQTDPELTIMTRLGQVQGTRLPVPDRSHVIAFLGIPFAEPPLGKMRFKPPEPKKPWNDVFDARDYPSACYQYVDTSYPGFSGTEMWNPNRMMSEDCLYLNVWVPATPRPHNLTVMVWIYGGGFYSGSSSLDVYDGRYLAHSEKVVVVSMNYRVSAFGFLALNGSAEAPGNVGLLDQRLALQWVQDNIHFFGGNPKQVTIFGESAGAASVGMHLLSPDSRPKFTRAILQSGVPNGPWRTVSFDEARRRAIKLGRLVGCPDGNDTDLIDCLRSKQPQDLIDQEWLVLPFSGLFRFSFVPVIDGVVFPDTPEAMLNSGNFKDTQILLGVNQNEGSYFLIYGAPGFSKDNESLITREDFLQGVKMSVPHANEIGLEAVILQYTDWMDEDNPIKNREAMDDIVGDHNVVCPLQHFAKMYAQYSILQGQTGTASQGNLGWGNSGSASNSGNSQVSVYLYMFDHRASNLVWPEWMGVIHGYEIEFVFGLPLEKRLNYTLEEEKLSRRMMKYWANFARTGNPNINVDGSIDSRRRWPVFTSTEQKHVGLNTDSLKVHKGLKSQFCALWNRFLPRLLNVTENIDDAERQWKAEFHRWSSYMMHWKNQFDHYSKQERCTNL

Acetylcholinesterase [3] = biological target: T2, Acetylcholinesterase; assay: Inhibition of electric eel AChE using acetylthiocholine iodide as substrate after 15 mins by spectrophotometric analysis
[4] = biological target: Cholinesterase (Equus caballus) (UniProt P81908); assay: Inhibition of equine serum BuChE using butyrylthiocholine iodide as substrate preincubated for 10 mins followed by substrate addition measured after 15 mins by Ellman's method relative to control
Sequence of Cholinesterase (Equus caballus) (P81908 whole entry): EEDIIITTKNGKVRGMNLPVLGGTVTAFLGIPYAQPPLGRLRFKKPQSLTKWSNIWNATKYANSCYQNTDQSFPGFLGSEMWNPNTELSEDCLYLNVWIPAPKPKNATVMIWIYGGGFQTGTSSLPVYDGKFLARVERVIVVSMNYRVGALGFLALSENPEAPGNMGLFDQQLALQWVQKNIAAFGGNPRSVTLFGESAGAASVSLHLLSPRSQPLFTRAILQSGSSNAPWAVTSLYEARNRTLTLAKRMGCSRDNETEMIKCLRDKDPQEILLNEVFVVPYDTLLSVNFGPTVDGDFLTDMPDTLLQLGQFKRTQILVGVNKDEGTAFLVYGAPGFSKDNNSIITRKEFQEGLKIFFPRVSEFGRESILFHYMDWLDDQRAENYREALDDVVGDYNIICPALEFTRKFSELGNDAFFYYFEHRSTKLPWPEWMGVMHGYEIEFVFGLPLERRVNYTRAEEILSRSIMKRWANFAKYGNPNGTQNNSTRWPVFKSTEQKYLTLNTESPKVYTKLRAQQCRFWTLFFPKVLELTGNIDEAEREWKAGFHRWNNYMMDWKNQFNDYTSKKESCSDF

Acetylcholinesterase [5] = biological target: T2, Acetylcholinesterase
Description: Inhibition of electric eel AChE using acetylthiocholine iodide as substrate preincubated for 10 mins followed by substrate addition measured after 15 mins by Ellman's method

Cholinesterase [6] = biological target: T1, Cholinesterase
Description: Inhibition of BuChE (unknown origin) using butyrylthiocholine chloride as substrate preincubated for 15 mins followed by substrate addition measured after 30 mins by Ellman's method

Cholinesterase [7] = biological target: T1, Cholinesterase; assay: Inhibition of BuChE (unknown origin) at 25 uM relative to control
Beta-secretase 1 [8] = biological target: T3, Beta-secretase 1 (Homo sapiens, UniProt P56817); assay: Inhibition of BACE1 (unknown origin) at 25 uM relative to control
T3 sequence (P56817 whole entry): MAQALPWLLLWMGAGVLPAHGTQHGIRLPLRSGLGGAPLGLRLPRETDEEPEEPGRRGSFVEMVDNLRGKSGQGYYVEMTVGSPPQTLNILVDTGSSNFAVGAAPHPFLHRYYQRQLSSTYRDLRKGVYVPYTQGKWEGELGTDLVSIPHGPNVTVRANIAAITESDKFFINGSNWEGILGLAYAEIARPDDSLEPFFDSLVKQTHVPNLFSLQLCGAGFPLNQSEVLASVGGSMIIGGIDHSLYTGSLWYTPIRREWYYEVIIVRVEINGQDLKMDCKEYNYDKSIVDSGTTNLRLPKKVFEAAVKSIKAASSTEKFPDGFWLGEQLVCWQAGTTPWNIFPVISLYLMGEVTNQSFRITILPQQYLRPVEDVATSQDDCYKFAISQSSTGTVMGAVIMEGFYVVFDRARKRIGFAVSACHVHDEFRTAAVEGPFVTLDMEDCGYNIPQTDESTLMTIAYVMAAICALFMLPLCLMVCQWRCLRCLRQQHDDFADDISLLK

[9] = biological target: T4, Amyloid-beta precursor protein (Homo sapiens, UniProt P05067); assay: Inhibition of amyloid beta (1 to 42) (unknown origin) self aggregation relative to control; settings: concentration not given here
T4 sequence (P05067 whole entry): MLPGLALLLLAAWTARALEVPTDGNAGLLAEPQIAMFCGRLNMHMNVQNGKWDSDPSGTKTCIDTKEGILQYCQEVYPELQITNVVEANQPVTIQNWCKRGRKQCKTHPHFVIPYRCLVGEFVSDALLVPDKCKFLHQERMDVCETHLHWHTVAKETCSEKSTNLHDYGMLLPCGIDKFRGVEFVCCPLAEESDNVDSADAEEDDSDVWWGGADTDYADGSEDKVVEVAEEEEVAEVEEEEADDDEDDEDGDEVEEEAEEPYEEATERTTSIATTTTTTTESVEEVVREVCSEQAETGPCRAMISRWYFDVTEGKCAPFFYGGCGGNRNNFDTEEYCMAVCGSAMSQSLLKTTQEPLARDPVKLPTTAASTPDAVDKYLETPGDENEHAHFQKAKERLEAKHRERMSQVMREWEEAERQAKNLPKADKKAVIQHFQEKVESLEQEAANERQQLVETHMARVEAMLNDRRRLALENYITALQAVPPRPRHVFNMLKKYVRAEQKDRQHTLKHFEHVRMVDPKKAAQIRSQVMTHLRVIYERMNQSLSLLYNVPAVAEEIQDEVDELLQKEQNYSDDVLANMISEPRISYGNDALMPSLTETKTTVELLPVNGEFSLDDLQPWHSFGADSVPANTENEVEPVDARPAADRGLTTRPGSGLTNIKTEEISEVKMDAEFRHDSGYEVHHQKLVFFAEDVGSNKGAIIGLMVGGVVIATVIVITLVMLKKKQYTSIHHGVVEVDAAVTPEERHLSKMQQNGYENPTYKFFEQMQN

Cholinesterase [10] = biological target: T1, Cholinesterase; assay: Inhibition of BuChE (unknown origin) after 2 mins
[11] = biological target: T4, Amyloid-beta precursor protein
Beta-secretase 1 [12] = biological target: T3, Beta-secretase 1; assay: Inhibition of BACE1 (unknown origin) expressed in baculovirus-expression system using Rh-EVNLDAEFK-Quencher substrate after 90 mins by FRET assay
Cholinesterase [13] = biological target: T1, Cholinesterase; assay: Inhibition of BuChE (unknown origin) by Ellman's method
Cholinesterase [14] = biological target: Cholinesterase (Equus caballus, UniProt P81908); assay: Inhibition of equine serum BuChE using butyrylthiocholine iodide as substrate preincubated for 3 mins followed by substrate addition
Sequence of Cholinesterase (Equus caballus, UniProt P81908) (P81908 whole entry): as the sequence (P81908 whole entry) above

Cholinesterase [15] = biological target: T1, Cholinesterase; remark: listed apart in the source
HCT-116 = assay: Cytotoxicity against human HCT116 cells after 18 hrs by MTT assay; type: functional, cell-based; settings: HCT-116, 18 h

T1 sequence (P06276 whole entry): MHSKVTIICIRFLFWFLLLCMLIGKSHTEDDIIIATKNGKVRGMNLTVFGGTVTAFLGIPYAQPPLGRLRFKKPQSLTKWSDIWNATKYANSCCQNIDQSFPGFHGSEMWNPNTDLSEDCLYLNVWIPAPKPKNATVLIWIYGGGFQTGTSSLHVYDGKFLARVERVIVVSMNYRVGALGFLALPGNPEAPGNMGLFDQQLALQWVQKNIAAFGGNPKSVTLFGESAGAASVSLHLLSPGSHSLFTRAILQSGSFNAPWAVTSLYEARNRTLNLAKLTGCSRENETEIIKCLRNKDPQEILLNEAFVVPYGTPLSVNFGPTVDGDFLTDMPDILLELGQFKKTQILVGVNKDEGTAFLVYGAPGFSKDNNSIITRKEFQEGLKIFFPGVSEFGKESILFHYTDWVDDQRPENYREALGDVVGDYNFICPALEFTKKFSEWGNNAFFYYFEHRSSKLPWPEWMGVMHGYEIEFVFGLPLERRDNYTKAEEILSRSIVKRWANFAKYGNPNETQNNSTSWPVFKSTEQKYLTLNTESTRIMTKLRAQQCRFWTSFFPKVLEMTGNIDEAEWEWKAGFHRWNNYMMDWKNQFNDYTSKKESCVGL

COc1ccc2c(c1)C/C(=C\c1ccc(-c3cn(-c4ccnc5ccccc45)nn3)cc1)C2=O
inhibition (Cholinesterase [1]): 0.2%

O=C(NC1CCN(Cc2ccccc2)CC1)c1cc2ccc(OCc3cn(Cc4ccccc4Br)nn3)cc2oc1=O
IC50 (Acetylcholinesterase [2]): 3.29 to 29.4 µM

O=C(NC1CCN(Cc2ccccc2)CC1)c1cc2ccc(OCc3cn(Cc4ccc(Cl)c(Cl)c4)nn3)cc2oc1=O
IC50 (Acetylcholinesterase [2]): 3.29 to 29.4 µM

CCn1cc(-c2nnc(O)n2Cc2ccccc2)c(=O)c2cc(Cl)c(F)cc21
IC50 (Acetylcholinesterase [3]): 1200 µM

Cc1ccccc1Cn1cc(Cn2c3ccccc3c3ccccc32)nn1
IC50 (Cholinesterase [1]): > 100 µM

COc1ccc2c(c1)C(=O)/C(=C/c1ccc(-c3cn(-c4ccnc5ccccc45)nn3)cc1)C2
inhibition (Cholinesterase [1]): 0%

Fc1cccc(Cn2cc(Cn3c4ccccc4c4ccccc43)nn2)c1
IC50 (Cholinesterase [1]): > 100 µM

O=C(NC1CCN(Cc2ccccc2)CC1)c1cc2ccc(OCc3cn(Cc4cccc(Cl)c4Cl)nn3)cc2oc1=O
IC50 (Acetylcholinesterase [2]): 3.29 to 29.4 µM

Cc1ccc(OCc2nn3c(-c4cccc(Br)c4)nnc3s2)cc1
inhibition [4]: 50% | IC50 (Acetylcholinesterase [5]): 0.117 µM

CN(C)CCCC1(c2ccc(F)cc2)CCc2cc(-c3nnc(-c4cccc(Cl)c4)[nH]3)ccc21 (stereo unspecified)
IC50 (Cholinesterase [6]): 4.52 to 9.52 µM

Clc1ccc(-c2cn(C[C@@H]3Cc4c([nH]c5ccccc45)CN3)nn2)cc1Cl
inhibition (Cholinesterase [7]): 61.5% | inhibition (Beta-secretase 1 [8]): 61.5%

COc1cc(/C=C/C(=O)CC(=O)/C=C/c2ccc(O)c(OC)c2)ccc1O
inhibition [9]: 95.1%

O=C(NC1CCN(Cc2ccccc2)CC1)c1cc2ccc(OCc3cn(Cc4ccccc4Cl)nn3)cc2oc1=O
IC50 (Acetylcholinesterase [2]): 3.29 to 29.4 µM

Oc1ccc2cc(-c3cn(C[C@@H]4Cc5c([nH]c6ccccc56)CN4)nn3)ccc2c1
inhibition (Beta-secretase 1 [8]): 30.4%

Cc1cc(=O)oc2cc(OCCCCCn3cc(CNc4c5c(nc6cc(Cl)ccc46)CCCC5)nn3)ccc12
IC50 (Cholinesterase [10]): 0.027 µM

CCOC(=O)C(Cc1cn(-c2ccccc2C(F)(F)F)nn1)(Cc1cn(-c2ccccc2C(F)(F)F)nn1)NC(C)=O
inhibition [9]: 96.9% | IC50 [11]: 8.06 µM

O=[N+]([O-])c1ccc(Cn2cc(COc3ccc(/C=N/Nc4nnc(-c5ccccc5)c(-c5ccccc5)n4)cc3)nn2)cc1
IC50 (Beta-secretase 1 [12]): 11.4 µM

O=C(NC1CCN(Cc2ccccc2)CC1)c1cc2ccc(OCc3cn(Cc4ccc(F)cc4)nn3)cc2oc1=O
IC50 (Acetylcholinesterase [2]): 3.29 to 29.4 µM

O=C(/C=C/c1ccc(O)c(O)c1)NCc1cn(C[C@@H]2Cc3c([nH]c4ccccc34)CN2)nn1
inhibition (Beta-secretase 1 [8]): 40%

Cc1nn(CC(=O)N/N=C/c2ccc(Br)cc2O)c(=O)n1-c1ccc(C(=O)N/N=C/c2ccc(Br)cc2O)cc1
IC50 (Cholinesterase [13]): 0.0486 µM

O=C(CCCc1ccc(O)cc1)NCc1cn(C[C@@H]2Cc3c([nH]c4ccccc34)CN2)nn1
inhibition (Beta-secretase 1 [8]): 33%

O=c1ccc2ccc(OCCCCCCCn3cc(CNc4c5c(nc6ccccc46)CCCC5)nn3)cc2o1
IC50 (Cholinesterase [10]): 0.006 µM

CN(C)CCCC1(c2ccc(F)cc2)CCc2cc(-c3nnc(-c4cccc(F)c4)[nH]3)ccc21 (stereo unspecified)
IC50 (Cholinesterase [6]): 4.52 to 9.52 µM

CN(C)CCCC1(c2ccc(F)cc2)CCc2cc(-c3nnc(-c4ccccc4I)[nH]3)ccc21 (stereo unspecified)
IC50 (Cholinesterase [6]): 4.52 to 9.52 µM

COc1cc(-c2nnc(-c3ccc4c(c3)CCC4(CCCN(C)C)c3ccc(F)cc3)[nH]2)ccc1O (stereo unspecified)
IC50 (Cholinesterase [6]): 4.52 to 9.52 µM

Cc1ccc(Cn2cc(COc3ccc4cc(C(=O)NC5CCN(Cc6ccccc6)CC5)c(=O)oc4c3)nn2)cc1C
IC50 (Acetylcholinesterase [2]): 1.8 µM | IC50 (Cholinesterase [14]): > 100 µM

CN(C)CCCC1(c2ccc(F)cc2)CCc2cc(-c3nnc(-c4ccc(F)cc4)[nH]3)ccc21 (stereo unspecified)
IC50 (Cholinesterase [6]): 5.31 µM

CC1(C)Oc2cc3oc(=O)ccc3cc2CC1OC(=O)n1cc(CNC(=O)CCCCC2CCSS2)nn1 (stereo unspecified)
IC50 (Cholinesterase [15]): 5890 µM

Cc1nn(CC(=O)N/N=C/c2ccc(Br)cc2)c(=O)n1-c1ccc(C(=O)N/N=C/c2ccc(Br)cc2)cc1
IC50 (Cholinesterase [13]): 0.125 µM

COc1cccc(Cn2cc(Cn3c4ccccc4c4ccccc43)nn2)c1
IC50 (Cholinesterase [1]): > 100 µM

CN(C)CCCC1(c2ccc(F)cc2)CCc2cc(-c3nnc(-c4ccccc4F)[nH]3)ccc21 (stereo unspecified)
IC50 (Cholinesterase [6]): 4.52 µM

CN(C)C(=O)Oc1cccc([N+](C)(C)C)c1 [NEOSTIGMINE]
IC50 (Acetylcholinesterase [5]): 16.3 µM

Clc1ccc(Cn2cc(COc3ccc(/C=N/Nc4nnc(-c5ccccc5)c(-c5ccccc5)n4)cc3)nn2)cc1
IC50 (Beta-secretase 1 [12]): 8.55 µM

Cc1cccc(Cn2cc(Cn3c4ccccc4c4ccccc43)nn2)c1
IC50 (Cholinesterase [1]): > 100 µM

O=c1oc2ccccc2c2c1cnn2Cc1cn(-c2c(Cl)cc(Cl)cc2Cl)nn1
IC50 (HCT-116): 6 µM

Cc1nn(CC(=O)N/N=C/c2cccc(Br)c2)c(=O)n1-c1ccc(C(=O)N/N=C/c2cccc(Br)c2)cc1
IC50 (Cholinesterase [13]): 0.0937 µM

Cc1nn(CC(=O)N/N=C/c2ccccc2)c(=O)n1-c1ccc(C(=O)N/N=C/c2ccccc2)cc1
IC50 (Cholinesterase [13]): 0.0702 µM

Fc1ccccc1Cn1cc(Cn2c3ccccc3c3ccccc32)nn1
IC50 (Cholinesterase [1]): > 100 µM

COc1ccc(/C=N/NC(=O)Cn2nc(C)n(-c3ccc(C(=O)N/N=C/c4ccc(OC)cc4)cc3)c2=O)cc1
IC50 (Cholinesterase [13]): 0.0486 to 0.125 µM

CC(C)(C)c1ccc(-c2cn(C[C@@H]3Cc4c([nH]c5ccccc45)CN3)nn2)cc1
inhibition (Beta-secretase 1 [8]): 18.9%

CCn1c(O)nnc1-c1cn(CC)c2ccc(C)cc2c1=O
IC50 (Acetylcholinesterase [3]): 1740 µM

Cc1nn(CC(=O)N/N=C/c2ccc(Cl)cc2)c(=O)n1-c1ccc(C(=O)N/N=C/c2ccc(Cl)cc2)cc1
IC50 (Cholinesterase [13]): 0.0557 µM
